Laboratory results reported in ChEMBL document CHEMBL1201862, “PubChem BioAssay data set” (2004).
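Protocol summary: plate cells (96-well), add compound at 5 concentrations, incubate 48 h, interpolate endpoints linearly. GI50 = concentration required for 50% inhibition of growth.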 The source made the active and inactive calls. Cut-off read from the data, not from the text of the source: active = GI50 up to about 1.1 µM and inactive = higher.

Tests used:
Assay in all cases: growth of human tumour cells (NCI), 48 h
BT-549 = tested on: BT-549
CAKI-1 = tested on: CAKI-1
HL-60 = tested on: HL-60
HOP-92 = tested on: HOP-92
Hs-578T = tested on: Hs-578T
IGROV-1 = tested on: IGROV-1
MCF7 = tested on: MCF7
NCI-H226 = tested on: NCI-H226
NCI-H460 = tested on: NCI-H460
NCI-H522 = tested on: NCI-H522
OVCAR-3 = tested on: OVCAR-3
PC-3 = tested on: PC-3
SF-295 = tested on: SF-295
SK-MEL-2 = tested on: SK-MEL-2
SK-MEL-5 = tested on: SK-MEL-5
SN12C = tested on: SN12C
SNB-75 = tested on: SNB-75
SR = tested on: SR
T47D = tested on: T47D
TK-10 = tested on: TK-10

| Compound | GI50 (BT-549) | GI50 (CAKI-1) | GI50 (HL-60) | GI50 (HOP-92) | GI50 (Hs-578T) | GI50 (IGROV-1) | GI50 (MCF7) | GI50 (NCI-H226) | GI50 (NCI-H460) | GI50 (NCI-H522) | GI50 (OVCAR-3) | GI50 (PC-3) | GI50 (SF-295) | GI50 (SK-MEL-2) | GI50 (SK-MEL-5) | GI50 (SN12C) | GI50 (SNB-75) | GI50 (SR) | GI50 (T47D) | GI50 (TK-10) |
| --- | --- | --- | --- | --- | --- | --- | --- | --- | --- | --- | --- | --- | --- | --- | --- | --- | --- | --- | --- | --- |
| CC/C(Cl)=N\OC(=O)Nc1ccc(OC)c(C)c1 | 12.9 µM (inactive) | 0.832 µM (active) | 3.5 µM (inactive) | 2.82 µM (inactive) | 16.9 µM (inactive) | 16.4 µM (inactive) | 16.7 µM (inactive) | 26.4 µM (inactive) | 41.2 µM (inactive) | 2.21 µM (inactive) | 16.4 µM (inactive) | 28.8 µM (inactive) | 80.4 µM (inactive) | 19 µM (inactive) | 18.7 µM (inactive) | 15.9 µM (inactive) | 80 µM (inactive) | 3.04 µM (inactive) | 13.9 µM (inactive) | 20.6 µM (inactive) |
| CN(O)C(=S)c1ccccc1 | > 100 µM (inactive) | 4.25 µM (inactive) | 0.233 µM (active) | 5.25 µM (inactive) | > 20.2 µM (inactive) | 3.52 µM (inactive) | 1.1 µM (active) | 34.2 µM (inactive) | 2.9 µM (inactive) | 0.0944 µM (active) | 2.45 µM (inactive) | 3.23 µM (inactive) | 3.48 µM (inactive) | 5.07 µM (inactive) | 1.7 µM (inactive) | 5.18 µM (inactive) | 4.31 µM (inactive) | 0.178 µM (active) | 16.4 µM (inactive) | > 78.2 µM (inactive) |
| CC(C)=NNc1ncnc2[nH]cnc12 | 48.1 µM (inactive) | 3.66 µM (inactive) | 3.71 µM (inactive) | 16.9 µM (inactive) | 11.8 µM (inactive) | 7.82 µM (inactive) | 4.07 µM (inactive) | 12 µM (inactive) | 7.06 µM (inactive) | 2.86 µM (inactive) | 5.78 µM (inactive) | 9.04 µM (inactive) | 8.55 µM (inactive) | 3.82 µM (inactive) | 14.5 µM (inactive) | 14.5 µM (inactive) | 18.2 µM (inactive) | 4.69 µM (inactive) | 11.2 µM (inactive) | 4.9 µM (inactive) |
| O=C1C=CC(=O)[C@H]2C3C=CC(C4C3C3(Cl)C(Cl)=C(Cl)[C@]4(Cl)C3(Cl)Cl)[C@@H]12 (some centres undefined) | 5.96 µM (inactive) | 11.5 µM (inactive) | 1.57 µM (inactive) | 2.18 µM (inactive) | 10.9 µM (inactive) | 5.79 µM (inactive) | 3.91 µM (inactive) | 6.47 µM (inactive) | 4.02 µM (inactive) | 11 µM (inactive) | 2.95 µM (inactive) | 4.94 µM (inactive) | 12.5 µM (inactive) | 7.76 µM (inactive) | 3.55 µM (inactive) | 5.58 µM (inactive) | 12.2 µM (inactive) | 1.66 µM (inactive) | 5.48 µM (inactive) | 16.8 µM (inactive) |
| CC(=O)Nc1c(C)cc(OCC(=O)O)cc1C | > 100 µM (inactive) | > 100 µM (inactive) | > 100 µM (inactive) | > 100 µM (inactive) | > 100 µM (inactive) | > 100 µM (inactive) | > 100 µM (inactive) | > 100 µM (inactive) | > 100 µM (inactive) | > 100 µM (inactive) | > 100 µM (inactive) | > 100 µM (inactive) | > 100 µM (inactive) | > 100 µM (inactive) | > 100 µM (inactive) | > 100 µM (inactive) | > 100 µM (inactive) | > 100 µM (inactive) | > 100 µM (inactive) | > 100 µM (inactive) |
| Cc1cccc(NC(=O)/C=C/c2ccc([N+](=O)[O-])cc2)c1 | > 34.5 µM (inactive) | > 39.3 µM (inactive) | – | 15.8 µM (inactive) | 48.1 µM (inactive) | 18.5 µM (inactive) | > 22.3 µM (inactive) | > 46.7 µM (inactive) | > 43.5 µM (inactive) | 7.45 µM (inactive) | 12.5 µM (inactive) | 14.7 µM (inactive) | 29 µM (inactive) | 20 µM (inactive) | > 36.4 µM (inactive) | > 41.2 µM (inactive) | 30.1 µM (inactive) | 11.7 µM (inactive) | > 37.8 µM (inactive) | > 41.5 µM (inactive) |
| COC(=O)[C@]12CC[C@H]3CN(C(=O)OCc4ccccc4)[C@H]([C@H]31)[C@H](C(=O)OCC[Si](C)(C)C)N2S(=O)(=O)c1ccc(C)cc1 | > 100 µM (inactive) | > 100 µM (inactive) | 8.85 µM (inactive) | 3.13 µM (inactive) | > 100 µM (inactive) | > 100 µM (inactive) | 37.3 µM (inactive) | > 100 µM (inactive) | > 100 µM (inactive) | > 100 µM (inactive) | > 100 µM (inactive) | 12.1 µM (inactive) | 29 µM (inactive) | 96.4 µM (inactive) | 12.2 µM (inactive) | > 100 µM (inactive) | – | 39.2 µM (inactive) | 5.32 µM (inactive) | > 100 µM (inactive) |
| CCN(CC)C(=O)Cn1c(-c2ccccc2)cc2ccccc21 | 33 µM (inactive) | – | 47.4 µM (inactive) | 27.7 µM (inactive) | 33.5 µM (inactive) | 60.8 µM (inactive) | 33.5 µM (inactive) | 42.7 µM (inactive) | 36.4 µM (inactive) | 28 µM (inactive) | > 100 µM (inactive) | 22.9 µM (inactive) | – | 72.8 µM (inactive) | 15.6 µM (inactive) | 97.3 µM (inactive) | 41.5 µM (inactive) | 32.5 µM (inactive) | 42 µM (inactive) | 34.9 µM (inactive) |
| CC1=CC(=O)/C(=C/n2c(=S)[nH]c3ccc([N+](=O)[O-])cc32)C(=O)O1 | > 100 µM (inactive) | – | 2.09 µM (inactive) | > 100 µM (inactive) | > 100 µM (inactive) | > 100 µM (inactive) | > 100 µM (inactive) | > 100 µM (inactive) | > 100 µM (inactive) | > 100 µM (inactive) | > 100 µM (inactive) | > 100 µM (inactive) | > 100 µM (inactive) | > 100 µM (inactive) | > 100 µM (inactive) | > 100 µM (inactive) | > 100 µM (inactive) | > 100 µM (inactive) | > 100 µM (inactive) | > 100 µM (inactive) |
| O=C1CC(c2ccccc2)n2c(nc3ccccc32)N1 (centres undefined) | 29.2 µM (inactive) | 35.3 µM (inactive) | 16.8 µM (inactive) | 17.9 µM (inactive) | 76.9 µM (inactive) | 47.4 µM (inactive) | 67.1 µM (inactive) | > 100 µM (inactive) | > 100 µM (inactive) | 29.9 µM (inactive) | 54.2 µM (inactive) | > 100 µM (inactive) | > 100 µM (inactive) | 18.9 µM (inactive) | 20.5 µM (inactive) | – | – | 36.2 µM (inactive) | 25.4 µM (inactive) | > 100 µM (inactive) |
| O=C(CSCC(=O)N/N=C\c1ccc(-c2ccccc2)cc1)N/N=C\c1ccc(-c2ccccc2)cc1 | 20.8 µM (inactive) | 40.5 µM (inactive) | – | 45.6 µM (inactive) | 18.3 µM (inactive) | 11.8 µM (inactive) | 36.1 µM (inactive) | 28.8 µM (inactive) | 30.9 µM (inactive) | 13.5 µM (inactive) | 16.1 µM (inactive) | 30.4 µM (inactive) | 18.2 µM (inactive) | 16 µM (inactive) | 39.9 µM (inactive) | 24.7 µM (inactive) | 16.3 µM (inactive) | 6.58 µM (inactive) | 34.9 µM (inactive) | 26 µM (inactive) |
| O=C(c1ccccc1)n1c(Cc2ccccc2)nc2cc(C34CC5CC(CC(C5)C3)C4)ccc21 | 46.5 µM (inactive) | > 100 µM (inactive) | 33.7 µM (inactive) | 24 µM (inactive) | > 100 µM (inactive) | 53.6 µM (inactive) | 24.4 µM (inactive) | 58.3 µM (inactive) | 52.7 µM (inactive) | 37.3 µM (inactive) | – | 49 µM (inactive) | 52.2 µM (inactive) | 31.9 µM (inactive) | 27 µM (inactive) | 35.8 µM (inactive) | 31.6 µM (inactive) | 39.6 µM (inactive) | 36.7 µM (inactive) | > 100 µM (inactive) |
| O=c1c2cc(-c3ccccc3)sc2nc2n1N=C(c1ccc(Cl)cc1)CS2 | > 100 µM (inactive) | > 100 µM (inactive) | > 100 µM (inactive) | > 100 µM (inactive) | > 100 µM (inactive) | > 100 µM (inactive) | > 100 µM (inactive) | > 100 µM (inactive) | > 100 µM (inactive) | > 100 µM (inactive) | > 100 µM (inactive) | > 100 µM (inactive) | > 100 µM (inactive) | – | > 100 µM (inactive) | > 100 µM (inactive) | > 100 µM (inactive) | > 100 µM (inactive) | 57.5 µM (inactive) | > 100 µM (inactive) |
| O=c1[nH]cc(/N=C/c2cc(Cl)cc(Cl)c2O)c(=O)[nH]1 | 45.1 µM (inactive) | 24.6 µM (inactive) | 13.6 µM (inactive) | 27.4 µM (inactive) | 21.4 µM (inactive) | 17 µM (inactive) | 25.8 µM (inactive) | 23.4 µM (inactive) | 39.9 µM (inactive) | 21.5 µM (inactive) | 17.7 µM (inactive) | 27.8 µM (inactive) | 47.3 µM (inactive) | 19.3 µM (inactive) | 19.1 µM (inactive) | 35.2 µM (inactive) | – | 14.3 µM (inactive) | 21.7 µM (inactive) | > 100 µM (inactive) |
